Source: US11639337B2, “Bicyclic heteroaryl derivatives and preparation and uses thereof” (XWPHARMA LTD., priority 2017, dated 2023)

What was measured:
[1] = Rat pharmacokinetic study; format: in vivo, male Sprague-Dawley rats; details: male, Sprague-Dawley, plasma, PO, single dose 5.8 mg/kg
Procedure: For rat pharmacokinetic studies, male Sprague-Dawley rats were housed individually and fasted overnight before use. The animal dosing experiments were carried out in accordance to the National Institutes of Health Guide to the Care and Use of Laboratory Animals and the Animal Welfare Act. For Compound I, a single dose of 5.8 mg/kg was administered to each rat in two groups (n=5/group) via intravenous (IV) and oral (PO) administration, respectively. The vehicle used for IV administration was 10% (v/v) CremophorEL in 90% PBS. The vehicle used for PO administration was 0.5% (w/v) methylcellulose in normal saline solution. Blood samples were collected at specified time-points (pre-dose, 30 minutes, 1 hour, 2 hours, 4 hours, 7 hours, 8 hours, 12 hours, 24 hours) following administration to individual rats within IV and PO group. Blood samples were clotted on ice immediately, plasma samples were then isolated by centrifugation and stored frozen (−80° C.) until further analysis. The concentrations of Compound I were individually determined by LC/MS/MS assay. Various pharmacokinetic parameters were calculated using Phoenix™ WinNonlin® software. To quantify the bioconversion efficiency of the Compound I in the circulation system, the bioavailability of Compound I after PO administration was calculated.

[2] = biological target: T1, human Nav1.7 voltage-gated sodium channels (Homo sapiens, UniProt Q15858); test: Manual whole-cell patch-clamp, inhibition of hNav1.7 sodium current; format: cell-based; details: HEK293 cells stably transfected with SCN9A, holding potential -80 mV, peak current
T1 construct: expressed in transfected cells; host or cells: HEK293
Procedure: (§1) The potential inhibitory effect of Compound I-XXII on human voltage-gated sodium channels (hNav1.2/1.7) was evaluated by manual patch-clamp system according to the procedures as described. HEK293 cell line stably transfected with SCN2A/SCN9A gene was employed in this study and Tetrodotoxin (TTX) was used as a positive control to ensure the good quality of the assay.
(§2) General procedure: HEK 293 cells were stably transfected with human Nav1.2 or Nav1.7 voltage-gated sodium channels. The cells are routinely maintained in culture medium containing in 90% DMEM, 10% FBS, 100 U/mL Penicillin-Streptomycin and […] of G418. Before the assay, the cells were resuspended and plated onto the coverslips at 5×10^5 cells/per 6 cm cell culture dish for use. The voltage-gated Nav1.2 and Nav1.7 channel current was recorded at room temperature (25° C.) from randomly selected transfected cells under whole-cell patch clamp systems equipped with EPC10 USB (HEKA) or Multiclamp 700B amplifier (Molecular Devices), while electrical data was digitalized by Digidata1440A with sampling frequency over 10 kHz and acquired with Patchmaster or pClamp10 respectively. The glass electrode with resistance ranged from 2 to 3.5 MW was prepared by micropipette puller P-97 (Sutter Instrument) and filled with internal solutions (in mM): 140 KCl, 2 MgCl2, 10 EGTA, 10 HEPES and 5 MgATP (pH adjusted to 7.35 with KOH), while cells were bathed in extracellular solutions (in mM) 132 NaCl, 4 KCl, 3 CaCl2, 0.5 MgCl2, 11.1 glucose, and 10 HEPES (pH adjusted to 7.35 with NaOH). After rupture, the series membrane resistance was at least 50% compensated and capacitance was also compensated as well. All cells were voltage-clamped to a holding potential of −80 mV unless otherwise specified. The inward sodium currents were elicited by a 20-ms voltage pulse to 10 mV from −80 mV applied every 15 s. The sodium current was initially recorded for at least 120 seconds to assess the current stability, and only cells with recording parameters over acceptance criteria was finally used to assess the dose response to the local perfusion of Compound I-XXII. The blank vehicle was firstly applied to the patched cells in order to establish the recording baseline. After at least 5 min when the elicited sodium currents reaches stabilization, the test compound was perfused into recording chamber accumulatively from low to high concentrations. The positive control article, Tetrodotoxin (TTX), was also used to challenge same batch of cell in order to ensure the good performance of the recording system. All experiments were performed in triplicate for IC50 determination. Upon data acquisition, the PatchMaster or pClamfit software were used to extract the peak current from the original raw data, while the peak current inhibition was defined by equation as shown below.
(§3) The dose response curve for the test compound was plotted with % inhibition against the dose concentration of the test compound using Graphpad Prism 5.0 software, and then the data was fit to a sigmoid dose-response curve with variable slope for IC50 determination.

[3] = biological target: T2, human Nav1.2 voltage-gated sodium channels (Homo sapiens, UniProt Q99250); test: Manual whole-cell patch-clamp, inhibition of hNav1.2 sodium current; format: cell-based; details: HEK293 cells stably transfected with SCN2A, holding potential -80 mV, peak current
T2 construct: expressed in transfected cells; host or cells: HEK293
Procedure: as §1, §2, §3

[4] = test system: SNL (Spinal Nerve Ligation) rats; test: Mechanical allodynia in SNL (spinal nerve ligation) rats, von Frey; format: in vivo, Sprague-Dawley rats; details: 5 mg/kg i.p., 0.5 h time point post dose
Procedure: SNL model is a commonly used model to measure surgical induced neuropathic pain. The goal of the study was to evaluate the efficacy of Compound I to attenuate mechanical allodynia in SNL model in Sprague-Dawley rats.
In this study, SNL model was created following typical procedure and the approved drug Tapentadol (XW-TAP) was used as reference compound. Gabapentin was applied as positive control for model validation.
1) 5 mg/kg Compound I: Added 17.13 mg Compound I to 16.96 mL 0.5% methylcellulose in normal saline solution, vortexed to fully mix.
1) Rats were placed individually in a plastic enclosure with a mesh bottom which allowed full access to the paws. Rats were acclimated for 15 min prior to testing.
2) After acclimation, the mid-plantar hind paw was touched with one of a series of eight von Frey hairs with logarithmically incremental stiffness as follows: 3.61 (0.4 g), 3.84 (0.6 g), 4.08 (1 g), 4.31 (2 g), 4.56 (4 g), 4.74 (6 g), 4.93 (8 g) and 5.18 (15 g). The von Frey hairs were presented perpendicularly to the plantar surface with sufficient force to cause slight buckling against the paw and held for approximately 6-8 s. Stimulation was presented at intervals of 5 seconds, allowing for apparent resolution of any behavioral responses to previous stimulus. A positive response was noted if the paw was sharply withdrawn. […]

metastatic melanoma = details: Phase 2, patients with metastatic melanoma; cited from earlier work

T1 sequence (Q15858 whole entry): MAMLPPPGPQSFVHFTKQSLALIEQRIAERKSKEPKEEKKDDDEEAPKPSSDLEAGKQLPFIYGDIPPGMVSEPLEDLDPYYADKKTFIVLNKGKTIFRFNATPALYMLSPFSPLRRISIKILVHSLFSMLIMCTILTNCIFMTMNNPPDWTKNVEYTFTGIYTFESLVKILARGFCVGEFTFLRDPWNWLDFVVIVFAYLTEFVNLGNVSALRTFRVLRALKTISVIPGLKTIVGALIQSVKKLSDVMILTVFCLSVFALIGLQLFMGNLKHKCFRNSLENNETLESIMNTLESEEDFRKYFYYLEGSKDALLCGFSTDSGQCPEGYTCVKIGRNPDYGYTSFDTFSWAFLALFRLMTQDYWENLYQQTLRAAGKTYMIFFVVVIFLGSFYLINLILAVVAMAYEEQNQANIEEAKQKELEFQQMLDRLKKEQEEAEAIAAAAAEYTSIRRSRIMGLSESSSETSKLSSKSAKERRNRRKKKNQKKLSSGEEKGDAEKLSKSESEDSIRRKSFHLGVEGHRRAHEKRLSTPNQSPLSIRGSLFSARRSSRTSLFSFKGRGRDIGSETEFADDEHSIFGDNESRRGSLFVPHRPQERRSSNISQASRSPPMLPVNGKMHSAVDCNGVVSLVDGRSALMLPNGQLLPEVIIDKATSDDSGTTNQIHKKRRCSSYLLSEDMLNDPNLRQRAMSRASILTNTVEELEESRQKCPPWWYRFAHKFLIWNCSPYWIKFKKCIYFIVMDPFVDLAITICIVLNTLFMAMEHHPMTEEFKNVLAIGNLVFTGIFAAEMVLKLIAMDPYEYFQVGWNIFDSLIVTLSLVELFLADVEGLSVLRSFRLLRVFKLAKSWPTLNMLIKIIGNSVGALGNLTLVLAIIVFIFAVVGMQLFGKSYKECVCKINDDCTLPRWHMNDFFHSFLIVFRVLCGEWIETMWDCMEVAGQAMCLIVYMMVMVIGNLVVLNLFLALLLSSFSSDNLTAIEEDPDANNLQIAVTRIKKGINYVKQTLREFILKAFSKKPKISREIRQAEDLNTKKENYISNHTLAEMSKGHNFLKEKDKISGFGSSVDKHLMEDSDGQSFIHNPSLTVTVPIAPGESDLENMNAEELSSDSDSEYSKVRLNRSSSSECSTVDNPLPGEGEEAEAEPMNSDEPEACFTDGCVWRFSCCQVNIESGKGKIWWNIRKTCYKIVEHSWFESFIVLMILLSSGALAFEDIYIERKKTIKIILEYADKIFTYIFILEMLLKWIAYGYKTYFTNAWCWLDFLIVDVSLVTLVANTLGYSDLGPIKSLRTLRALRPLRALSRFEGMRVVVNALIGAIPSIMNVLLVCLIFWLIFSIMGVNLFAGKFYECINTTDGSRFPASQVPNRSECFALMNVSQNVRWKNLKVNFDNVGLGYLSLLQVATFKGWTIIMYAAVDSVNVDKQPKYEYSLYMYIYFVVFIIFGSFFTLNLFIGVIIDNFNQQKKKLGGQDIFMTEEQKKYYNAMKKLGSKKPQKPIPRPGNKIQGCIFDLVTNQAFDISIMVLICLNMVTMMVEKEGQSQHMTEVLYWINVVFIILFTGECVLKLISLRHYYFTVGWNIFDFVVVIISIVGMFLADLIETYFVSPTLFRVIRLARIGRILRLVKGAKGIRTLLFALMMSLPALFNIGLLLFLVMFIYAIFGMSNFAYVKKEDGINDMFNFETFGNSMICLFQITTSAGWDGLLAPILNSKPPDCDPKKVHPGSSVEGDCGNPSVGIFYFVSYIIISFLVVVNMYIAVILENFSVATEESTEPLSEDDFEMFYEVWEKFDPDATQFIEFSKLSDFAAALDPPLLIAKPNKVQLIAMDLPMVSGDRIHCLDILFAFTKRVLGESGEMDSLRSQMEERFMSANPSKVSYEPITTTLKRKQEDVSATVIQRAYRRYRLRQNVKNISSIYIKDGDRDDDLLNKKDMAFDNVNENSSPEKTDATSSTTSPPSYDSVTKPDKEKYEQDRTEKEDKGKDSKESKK
T2 sequence (Q99250 whole entry): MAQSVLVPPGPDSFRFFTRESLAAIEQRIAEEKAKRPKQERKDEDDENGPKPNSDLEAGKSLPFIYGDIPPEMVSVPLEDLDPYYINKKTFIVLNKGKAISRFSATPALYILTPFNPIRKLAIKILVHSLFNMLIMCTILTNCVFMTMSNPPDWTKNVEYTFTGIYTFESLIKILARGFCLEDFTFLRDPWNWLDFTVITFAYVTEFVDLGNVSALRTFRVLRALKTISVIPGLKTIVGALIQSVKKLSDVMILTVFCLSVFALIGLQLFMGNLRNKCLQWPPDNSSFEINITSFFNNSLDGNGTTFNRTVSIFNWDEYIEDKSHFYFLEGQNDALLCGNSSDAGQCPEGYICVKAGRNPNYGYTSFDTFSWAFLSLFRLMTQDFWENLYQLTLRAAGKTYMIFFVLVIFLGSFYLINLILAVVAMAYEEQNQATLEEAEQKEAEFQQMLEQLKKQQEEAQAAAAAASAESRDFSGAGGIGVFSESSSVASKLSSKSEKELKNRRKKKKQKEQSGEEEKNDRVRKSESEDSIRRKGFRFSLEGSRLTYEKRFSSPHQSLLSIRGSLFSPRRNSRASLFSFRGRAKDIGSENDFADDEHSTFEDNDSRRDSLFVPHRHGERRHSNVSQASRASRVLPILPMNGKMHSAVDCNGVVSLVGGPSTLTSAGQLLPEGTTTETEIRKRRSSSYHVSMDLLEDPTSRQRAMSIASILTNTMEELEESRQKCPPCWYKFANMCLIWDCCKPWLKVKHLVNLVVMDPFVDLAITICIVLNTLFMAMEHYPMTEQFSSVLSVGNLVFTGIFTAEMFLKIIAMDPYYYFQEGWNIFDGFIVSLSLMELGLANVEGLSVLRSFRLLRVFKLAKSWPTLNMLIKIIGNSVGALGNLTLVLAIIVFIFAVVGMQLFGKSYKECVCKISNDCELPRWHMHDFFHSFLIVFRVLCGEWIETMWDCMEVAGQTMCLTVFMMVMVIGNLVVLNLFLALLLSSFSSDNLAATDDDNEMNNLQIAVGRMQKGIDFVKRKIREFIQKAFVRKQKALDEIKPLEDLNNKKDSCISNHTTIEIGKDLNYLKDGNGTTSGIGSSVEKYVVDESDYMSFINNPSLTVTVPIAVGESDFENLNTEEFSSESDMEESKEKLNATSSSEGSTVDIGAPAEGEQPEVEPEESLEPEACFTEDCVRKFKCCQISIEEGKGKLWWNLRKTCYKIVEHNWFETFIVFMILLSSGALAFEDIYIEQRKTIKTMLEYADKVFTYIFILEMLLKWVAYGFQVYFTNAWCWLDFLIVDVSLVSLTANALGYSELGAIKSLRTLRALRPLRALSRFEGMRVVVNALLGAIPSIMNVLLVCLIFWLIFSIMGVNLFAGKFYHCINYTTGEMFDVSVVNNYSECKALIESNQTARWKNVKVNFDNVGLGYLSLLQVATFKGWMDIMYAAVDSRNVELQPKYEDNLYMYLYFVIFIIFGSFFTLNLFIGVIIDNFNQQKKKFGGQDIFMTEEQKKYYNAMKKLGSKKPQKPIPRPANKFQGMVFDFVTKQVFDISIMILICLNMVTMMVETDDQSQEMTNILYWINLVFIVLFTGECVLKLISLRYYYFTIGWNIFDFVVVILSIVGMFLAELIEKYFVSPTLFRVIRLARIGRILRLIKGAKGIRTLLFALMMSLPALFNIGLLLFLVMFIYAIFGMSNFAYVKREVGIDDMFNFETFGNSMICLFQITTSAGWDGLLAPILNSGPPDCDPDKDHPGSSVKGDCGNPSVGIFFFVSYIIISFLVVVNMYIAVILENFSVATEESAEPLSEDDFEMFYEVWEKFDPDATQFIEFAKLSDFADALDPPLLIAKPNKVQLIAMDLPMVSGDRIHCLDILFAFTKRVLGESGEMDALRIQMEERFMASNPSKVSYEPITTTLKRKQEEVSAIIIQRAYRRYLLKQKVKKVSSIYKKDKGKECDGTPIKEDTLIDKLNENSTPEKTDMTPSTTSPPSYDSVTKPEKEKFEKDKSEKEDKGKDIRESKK

| SMILES | IC50 [2] [nM] | IC50 [3] [nM] | further results |
| --- | --- | --- | --- |
| Nc1nc2ccc(S(F)(F)(F)(F)F)cc2s1 [Compound I, 6-(Pentafluorosulfanyl)benzo[d]thiazol-2-amine] | 682 | 4670 | AUC(0-t) [1]: 7690 ng·h/mL; Cmax [1]: 942 ng/mL; Tmax [1]: 2.3 h; half-life [1]: 7.11 h; anti-allodynic effect on SNL-induced mechanical allodynia [4]: reversed SNL-induced mechanical allodynia |
| Nc1nc2ccc(SC(F)(F)F)cc2[se]1 [Compound IX, 6-((Trifluoromethyl)thio)benzo[d][1,3]selenazol-2-amine] | 1170 | 15300 | – |
| Nc1nc2ccc(S(F)(F)(F)(F)F)cc2[se]1 [Compound V, 6-(Pentafluorosulfanyl)benzo[d][1,3]selenazol-2-amine] | 722 | 4370 | – |
| Nc1nc2ccc(C(F)(F)F)cc2[se]1 [Compound VI, 6-(Trifluoromethyl)benzo[d][1,3]selenazol-2-amine] | 745 | 10100 | – |
| Nc1nc2ccc(OC(F)(F)F)cc2[se]1 [Compound VII, 6-(Trifluoromethoxy)benzo[d][1,3]selenazol-2-amine] | 1360 | 18000 | – |
| Nc1nc2ccc(OC(F)(F)F)cc2s1 [Riluzole] | – | – | RECIST grade (metastatic melanoma): no overall improvement of RECIST grade |
